In US20240043405A1, “POTENT AND SELECTIVE IRREVERSIBLE INHIBITORS OF IRAK1” (Dana-Farber Cancer Institute, Inc., priority 2020, published 2024):

Experiments:
IRAK1 = IRAK1 (Homo sapiens (Human), UniProt P51617); assay: Adapta Universal Kinase Assay (ThermoFisher) against IRAK1; format: biochemical; conditions: IRAK1/Histone H3 (1-20) peptide, 60 minutes at room temperature
Protocol: To measure the IC50 values of the compounds herein against IRAK1, the Adapta Universal Kinase Assay (ThermoFisher) was used. Briefly, 100 nL of different concentrations of the compounds in 100% DMSO were added to each well of a 384-well plate (Corning Cat. #4512). 2.4 μL of 30 mM HEPES, 2.5 μL of 4×ATP solution (in water), and 5 μL of 2× IRAK1/Histone H3 (1-20) peptide mixture (prepared in 50 mM HEPES pH 7.5, 0.01% BRIJ-35, 10 mM MgCl2, 1 mM EGTA) were added to each well. The plate was shaken for 30 seconds and centrifuged for 1 minute at 1000×g. The plate was then incubated at room temperature for 60 minutes. 5 μL of Detection Mix was added to each well. The plate was shaken for 30 seconds and centrifuged for 1 minute at 1000×g. The plate was then incubated at room temperature for 60 minutes. The plate was subsequently read on a fluorescence plate reader, and the emissions ratio was calculated to determine the ratio of ATP to ADP. Emissions Ratio=AF647 Emission (665 nm)/Europium Emission (615 nm).

IRAK4 = IRAK4 (Homo sapiens (Human), UniProt Q9NWZ3); assay: Z'-LYTE assay (ThermoFisher) against IRAK4; format: biochemical; conditions: IRAK4/Ser/Thr 07, 60 minutes at room temperature
Protocol: To measure the 050 values of compounds herein against IRAK4, a Z′-LYTE assay (ThermoFisher) was used. Briefly, 2.5 μL. of different concentrations of the compounds in 1% DMSO were added to 2.4 μL kinase buffer (50 mM HEPES pH 7.5, 0.01% BRIJ-35, 10 mM MgCl2, 1 mM EGTA) in each well of a 384-well plate (Corning Cat. #3676). 5 μL of 2×IRAK4/Ser/Thr 07 mixture (prepared in 50 mM HEPES pH 7.5, 0.01% BRIJ-35, 10 mM MnCl2, 2 mM OTT, and 0.02% NaN3) and 2.5 μL of 4×ATP solution (4×ATP, 50 mM HEPES, pH 7.5, 0.01% BRIJ-35, 10 mM MgCl2, 1 mM EGTA) were added to each well. The plate was shaken for 30 seconds, and then incubated at room temperature for 60 minutes. 5 μL of a 1:100000 dilution of Development Reagent A was added to each well. The plate was shaken for 30 seconds and incubated for 60 minutes at room temperature. The plate was subsequently read on a fluorescence plate reader, and the emissions ratio was calculated to determine the ratio of Ser/Thr 07 phosphorylated by the reaction. Emissions Ratio=Coumarin Emission (443 nm)/Flourescein Emission (520 nm).

IRAK4, sequence (Q9NWZ3 whole entry): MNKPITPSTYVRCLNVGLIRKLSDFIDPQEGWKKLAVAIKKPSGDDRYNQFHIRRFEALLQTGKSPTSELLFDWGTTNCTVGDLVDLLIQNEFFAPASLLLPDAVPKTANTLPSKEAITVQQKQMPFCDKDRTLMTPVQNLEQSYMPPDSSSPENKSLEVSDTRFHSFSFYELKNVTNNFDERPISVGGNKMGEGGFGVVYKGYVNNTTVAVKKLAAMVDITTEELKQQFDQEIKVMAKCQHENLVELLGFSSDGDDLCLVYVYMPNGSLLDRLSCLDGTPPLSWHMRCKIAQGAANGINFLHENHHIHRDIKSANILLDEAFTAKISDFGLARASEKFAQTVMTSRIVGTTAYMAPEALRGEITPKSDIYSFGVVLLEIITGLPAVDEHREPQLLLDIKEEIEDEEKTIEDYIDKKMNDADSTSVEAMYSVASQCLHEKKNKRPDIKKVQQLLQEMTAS
IRAK1, sequence (P51617 whole entry): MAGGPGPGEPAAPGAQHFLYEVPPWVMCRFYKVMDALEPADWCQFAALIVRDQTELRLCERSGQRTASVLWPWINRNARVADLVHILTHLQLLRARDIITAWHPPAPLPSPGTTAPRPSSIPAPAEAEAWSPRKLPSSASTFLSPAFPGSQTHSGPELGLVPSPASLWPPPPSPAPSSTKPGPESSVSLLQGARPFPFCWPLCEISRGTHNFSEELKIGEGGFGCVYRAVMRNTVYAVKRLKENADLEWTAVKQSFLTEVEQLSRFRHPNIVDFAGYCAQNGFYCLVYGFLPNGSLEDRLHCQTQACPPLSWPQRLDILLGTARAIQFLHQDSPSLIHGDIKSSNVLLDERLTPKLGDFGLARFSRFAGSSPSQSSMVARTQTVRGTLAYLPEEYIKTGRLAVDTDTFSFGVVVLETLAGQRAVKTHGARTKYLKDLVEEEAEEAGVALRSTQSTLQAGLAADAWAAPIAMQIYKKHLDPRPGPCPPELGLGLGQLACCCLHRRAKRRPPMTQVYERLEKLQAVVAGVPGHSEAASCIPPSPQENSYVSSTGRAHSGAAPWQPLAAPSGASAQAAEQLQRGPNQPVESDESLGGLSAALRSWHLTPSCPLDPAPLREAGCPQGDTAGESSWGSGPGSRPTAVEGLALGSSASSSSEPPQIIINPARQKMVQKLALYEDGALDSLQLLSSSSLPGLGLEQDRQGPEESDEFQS

## C=CC(=O)N[C@@H]1CCCC(C(=O)Nc2ccc(NC(=O)c3cccc(-c4ccn[nH]4)n3)cc2F)C1 (stereo partly shown) [Compound 001]
IRAK1
  IC50: 129 nM
IRAK4
  IC50: > 10000 nM

## C=CC(=O)N[C@@H]1CCC[C@H](C(=O)Nc2ccc(NC(=O)c3cccc(-c4ccn[nH]4)n3)nc2)C1 [Compound 002, N-(5-((1S,3R)-3-acrylamidocyclohexane-1-carboxamido)pyridin-2-yl)-6-(1H-pyrazol-5-yl)-picolinamide]
IRAK1
  IC50: 257 nM
IRAK4
  IC50: > 10000 nM

## C=CC(=O)N[C@@H]1CCCC(C(=O)Nc2ccc(NC(=O)c3cccc(-c4ccn[nH]4)n3)cc2C)C1 (stereo partly shown) [Compound 003]
IRAK1
  IC50: 671 nM
IRAK4
  IC50: > 10000 nM

## C=CC(=O)N[C@H]1CCCC(C(=O)Nc2ccc(NC(=O)c3cccc(-c4ccn[nH]4)n3)nc2)C1 (stereo partly shown) [Compound 005]
IRAK1
  IC50: 189 nM
IRAK4
  IC50: > 10000 nM

## C=CC(=O)N[C@@H]1CNC[C@H](C(=O)Nc2ccc(NC(=O)c3cccc(-c4ccn[nH]4)n3)nc2)C1 [Compound 006, N-(5-((3R,5S)-5-acrylamidopiperidine-3-carboxamido)pyridin-2-yl)-6-(1H-pyrazol-5-yl)-picolinamide]
IRAK1
  IC50: 14 nM
IRAK4
  IC50: 4000 nM

## C=CC(=O)N[C@@H]1CNCC(C(=O)Nc2ccc(NC(=O)c3cccc(-c4ccn[nH]4)n3)cc2F)C1 (stereo partly shown) [Compound 007]
IRAK1
  IC50: 150 nM
IRAK4
  IC50: > 10000 nM

## C=CC(=O)N[C@H]1C[C@@H](C(=O)Nc2ccc(NC(=O)c3cccc(-c4ccn[nH]4)n3)nc2)CN(C)C1 [Compound 013, N-(5-((3R,5S)-5-acrylamido-1-methylpiperidine-3-carboxamido)pyridin-2-yl)-6-(1H-pyrazol-5-yl)picolinamide]
IRAK1
  IC50: 18.5 nM
IRAK4
  IC50: > 10000 nM

## C=CC(=O)NC12CC(C(=O)Nc3ccc(NC(=O)c4cccc(-c5ccn[nH]5)n4)cc3F)(C1)C2 [Compound 016]
IRAK1
  IC50: 301 nM
IRAK4
  IC50: 9930 nM

## C=CC(=O)N1CC2(CC(n3cc(-c4ccc(NC(=O)c5cccc(-c6cnoc6)n5)nc4)nn3)C2)C1 [Compound 024, N-(5-(1-(2-acryloyl-2-azaspiro[3,3]heptan-6-yl)-1H-1,2,3-triazol-4-yl)pyridin-2-yl)-6-(isoxazol-4-yl)picolinamide]
IRAK1
  IC50: 612 nM
IRAK4
  IC50: 3330 nM

## C=CC(=O)N[C@@H]1CCC[C@H](C(=O)Nc2ccc(NC(=O)c3cccc(-c4ccn[nH]4)n3)cc2)C1 [Compound 026, N-(4-((1 S,3R)-3-acrylamidocyclohexane-1-carboxamido)phenyl)-6-(1H-pyrazol-5-yl)-picolinamide]
IRAK1
  IC50: 68.1 nM
IRAK4
  IC50: > 10000 nM

## C=CC(=O)N1CCC[C@H](C(=O)Nc2ccc(NC(=O)c3cccc(-c4ccn[nH]4)n3)nc2)C1 [Compound 027, (S)-N-(5-(1-acryloylpiperidine-3-carboxamido)pyridin-2-yl)-6-(1H-pyrazol-5-yl)picolinamide]
IRAK1
  IC50: 6.37 nM
IRAK4
  IC50: 1870 nM

## C=CC(=O)N1CCC[C@@H](C(=O)Nc2ccc(NC(=O)c3cccc(-c4ccn[nH]4)n3)nc2)C1 [Compound 028, (R)-N-(5-(1-acryloylpiperidine-3-carboxamido)pyridin-2-yl)-6-(1H-pyrazol-5-yl)picolinamide]
IRAK1
  IC50: 12.5 nM
IRAK4
  IC50: 722 nM

## C=CC(=O)N1CCC[C@H](C(=O)Nc2ccc(NC(=O)c3cccc(-c4cnoc4)n3)nc2)C1 [Compound 029, (S)-N-(5-(1-acryloylpiperidine-3-carboxamido)pyridin-2-yl)-6-(isoxazol-4-yl)picolinamide]
IRAK1
  IC50: 658 nM
IRAK4
  IC50: > 10000 nM

## C=CC(=O)N1CCC[C@@H](C(=O)Nc2ccc(NC(=O)c3cccc(-c4cnoc4)n3)nc2)C1 [Compound 030, (R)-N-(5-(1-acryloylpiperidine-3-carboxamido)pyridin-2-yl)-6-(isoxazol-4-yl)picolinamide]
IRAK1
  IC50: 399 nM
IRAK4
  IC50: 3330 nM

## C=CC(=O)N1CCC[C@H](C(=O)Nc2ccc(NC(=O)c3cccc(-c4ccn[nH]4)n3)cc2F)C1 [Compound 031, (S)-N-(4-(1-acryloylpiperidine-3-carboxamido)-3-fluorophenyl)-6-(1H-pyrazol-5-yl)picolinamide]
IRAK1
  IC50: 40.1 nM
IRAK4
  IC50: 1110 nM

## C=CC(=O)N1CCC[C@H](C(=O)Nc2ccc(NC(=O)c3cccc(-c4cnoc4)n3)cc2F)C1 [Compound 032, (S)-N-(4-(1-acryloylpiperidine-3-carboxamido)-3-fluorophenyl)-6-(isoxazol-4-yl)picolinamide]
IRAK1
  IC50: 1190 nM
IRAK4
  IC50: > 10000 nM

## C=CC(=O)N1CCC[C@@H](C(=O)Nc2ccc(NC(=O)c3cccc(-c4ccn[nH]4)n3)cc2F)C1 [Compound 033, (R)-N-(4-(1 acryloylpiperidine-3-carboxamido)-3-fluorophenyl)-6-(1H-pyrazol-5-yl)picolinamide]
IRAK1
  IC50: 74.2 nM
IRAK4
  IC50: 2510 nM

## C=CC(=O)N1CCC[C@@H](C(=O)Nc2ccc(NC(=O)c3cccc(-c4cnoc4)n3)cc2F)C1 [Compound 034, (R)-N-(4-(1-acryloylpiperidine-3-carboxamido)-3-fluorophenyl)66-(isoxazol-4-yl)picolinamide]
IRAK1
  IC50: 344 nM
IRAK4
  IC50: 2010 nM

## C=CC(=O)N[C@H]1C[C@@H](C(=O)Nc2ccc(NC(=O)c3cccc(-c4ccn[nH]4)n3)nc2)CN(CC(F)(F)F)C1 [Compound 038, N-(5-((3R,5S)-5-acrylamido-1-(2,2,2-trifluoroethyl)piperidine-3-carboxamido)pyridin-2-yl)-6-(1H-pyrazol-5-yl)picolinamide]
IRAK1
  IC50: 12.1 nM
IRAK4
  IC50: > 10000 nM

## C=CC(=O)N[C@H]1C[C@@H](C(=O)Nc2ccc(NC(=O)c3cccc(-c4ccn[nH]4)n3)nc2)CN(CC(F)F)C1 [Compound 039, N-(5-((3R,5S)-5-acrylamido-1-(2,2-difluorethyl)piperidine-3-carboxamido)pyridin-2-yl)-6-(1H-pyrazol-5-yl)picolinamide]
IRAK1
  IC50: 14.9 nM
IRAK4
  IC50: > 10000 nM
